Assay results from ChEMBL document CHEMBL3217536, “Structureactivity relationships of gramicidin S analogs containing (-3-pyridyl)-,-dehydroalanine residues on membrane permeability” (Medchemcomm, 2011).
In brackets after ≈: the same amount, converted by molar mass. Activity calls are given as the source filed them. No cut-off for these calls is given here. *1 amine or outer side, *2 acyl side, *3 side chain or, on linkers, in order; H or OH if unused. Where a SMILES comes first, the peptide text is derived from it. [ ]: non-standard residue; d: D form. X1 = O=C(/C(=C/c1cccnc1)N[*:1])[*:2]; X2 = O=C(/C(=C/c1ccccc1)N[*:1])[*:2]; d3Pal = N[C@H](Cc1cccnc1)C(=O)O; Orn = NCCC[C@H](N)C(=O)O

What was measured:
Escherichia coli [1] = experiment: Antimicrobial activity against Escherichia coli K-12 W3110 after 20 hrs by liquid microdilution method; format: functional; details: K-12 W3110, 20 h
Staphylococcus aureus [2] = experiment: Antimicrobial activity against Staphylococcus aureus FDA 209P assessed as decrease in cell survival after 30 mins by colony counting method; format: functional; details: 0.5 h
Staphylococcus aureus [3] = experiment: Induction of cytoplasmic membrane disruption in Staphylococcus aureus FDA 209P assessed as change in potassium permeability after 30 mins; format: functional; details: for EC50: 0.5 h, read-out: ED50 (the source's name)
Escherichia coli [4] = experiment: Antimicrobial activity against Escherichia coli K-12 W3110 assessed as decrease in cell survival after 30 mins by colony counting method; format: functional; details: K-12 W3110, 0.5 h
Escherichia coli [5] = experiment: Induction of cytoplasmic membrane disruption in Escherichia coli K-12 W3110 assessed as change in potassium permeability after 30 mins; format: functional; details: K-12 W3110, 0.5 h, read-out: ED50 (the source's name)
[6] = Hemolytic activity against human erythrocytes; format: ADME, cell-based, Erythrocyte; details: read-out: ED50 (the source's name)
Staphylococcus aureus [7] = experiment: Antimicrobial activity against Staphylococcus aureus FDA 209P after 20 hrs by liquid microdilution method; format: functional
Escherichia coli [8] = experiment: Antimicrobial activity against Escherichia coli K-12 W3110 after 20 hrs by liquid microdilution method in presence of PMBN; format: functional

For `CC(C)C[C@@H]1NC(=O)[C@H](C)NC(=O)[C@H](C(C)C)NC(=O)[C@@H]2CCCN2C(=O)/C(=C/c2cccnc2)NC(=O)[C@H](CC(C)C)NC(=O)[C@H](C)NC(=O)[C@H](C(C)C)NC(=O)[C@@H]2CCCN2C(=O)/C(=C/c2cccnc2)NC1=O` (cyclo(AL[X1]PVAL[X1]PV)), which MIC (Escherichia coli [1]) is on record?
Its MIC is over 114 µM.

And the LC50 (Staphylococcus aureus [2])?
The LC50 was 50 µM.

And the EC50 (Staphylococcus aureus [3])?
Its EC50 is 50 µM.

And the LC50 (Escherichia coli [4])?
The LC50 was over 100 µM.

What about the EC50 (Escherichia coli [5]) of the same compound?
The EC50 was over 100 µM.

What about the HC50 [6] of the same compound?
Its HC50 is 50 µM.

What about the MIC (Staphylococcus aureus [7]) of the same compound?
The MIC was 114 µM (≈ 120 µg/mL).

For `CC(C)C[C@@H]1NC(=O)[C@H](CCCN)NC(=O)[C@H](C(C)C)NC(=O)[C@@H]2CCCN2C(=O)/C(=C/c2cccnc2)NC(=O)[C@H](CC(C)C)NC(=O)[C@H](CCCN)NC(=O)[C@H](C(C)C)NC(=O)[C@@H]2CCCN2C(=O)/C(=C/c2cccnc2)NC1=O` (cyclo(L[X1]PV[Orn]L[X1]PV[Orn])), which MIC (Escherichia coli [1]) is on record?
The MIC was 26 µM (≈ 29.6 µg/mL).

And the LC50 (Staphylococcus aureus [2])?
Its LC50 is 10 µM.

What about the Activity (Staphylococcus aureus [3]) of the same compound?
Its Activity is “Dose-dependent effect”.

And the EC50 (Staphylococcus aureus [3])?
The EC50 was 5 µM.

What about the LC50 (Escherichia coli [4]) of the same compound?
Its LC50 is 50 µM.

And the EC50 (Escherichia coli [5])?
Its EC50 is 50 µM.

And the Activity (Escherichia coli [8])?
The Activity was “inactive”.

What about the HC50 [6] of the same compound?
Its HC50 is over 100 µM.

And the MIC (Staphylococcus aureus [7])?
Its MIC is 6 µM (≈ 6.84 µg/mL).

For `CC(C)C[C@@H]1NC(=O)[C@H](CCCN)NC(=O)[C@H](C(C)C)NC(=O)[C@@H]2CCCN2C(=O)[C@@H](Cc2cccnc2)NC(=O)[C@H](CC(C)C)NC(=O)[C@H](CCCN)NC(=O)[C@H](C(C)C)NC(=O)[C@@H]2CCCN2C(=O)[C@@H](Cc2cccnc2)NC1=O` (cyclo(L[d3Pal]PV[Orn]L[d3Pal]PV[Orn])), which MIC (Escherichia coli [1]) is on record?
Its MIC is 50 µM (≈ 57.2 µg/mL).

What about the LC50 (Staphylococcus aureus [2]) of the same compound?
The LC50 was 20 µM.

And the EC50 (Staphylococcus aureus [3])?
Its EC50 is 20 µM.

And the LC50 (Escherichia coli [4])?
The LC50 was 100 µM.

What about the EC50 (Escherichia coli [5]) of the same compound?
The EC50 was 50 µM.

What about the HC50 [6] of the same compound?
Its HC50 is over 100 µM.

What about the MIC (Staphylococcus aureus [7]) of the same compound?
The MIC was 50 µM (≈ 57.2 µg/mL).

What does the source list for `CC(C)C[C@@H]1NC(=O)[C@H](C)NC(=O)[C@H](C(C)C)NC(=O)[C@@H]2CCCN2C(=O)/C(=C/c2cccnc2)NC(=O)[C@H](CC(C)C)NC(=O)[C@H](CCCN)NC(=O)[C@H](C(C)C)NC(=O)[C@@H]2CCCN2C(=O)/C(=C/c2cccnc2)NC1=O` (cyclo(AL[X1]PV[Orn]L[X1]PV))?
MIC (Escherichia coli [1]): 106 µM (≈ 116 µg/mL); LC50 (Staphylococcus aureus [2]): 10 µM; EC50 (Staphylococcus aureus [3]): 10 µM; LC50 (Escherichia coli [4]): > 100 µM; EC50 (Escherichia coli [5]): > 100 µM; HC50 [6]: 50 µM; MIC (Staphylococcus aureus [7]): 13 µM (≈ 14.3 µg/mL)

For `CC(C)C[C@@H]1NC(=O)[C@H](CCCN)NC(=O)[C@H](C(C)C)NC(=O)[C@@H]2CCCN2C(=O)[C@@H](Cc2ccccc2)NC(=O)[C@H](CC(C)C)NC(=O)[C@H](CCCN)NC(=O)[C@H](C(C)C)NC(=O)[C@@H]2CCCN2C(=O)[C@@H](Cc2ccccc2)NC1=O` [GRAMICIDIN S] (cyclo(L[dF]PV[Orn]L[dF]PV[Orn])), which MIC (Escherichia coli [1]) is on record?
The MIC was 13 µM (≈ 14.8 µg/mL).

What about the LC50 (Staphylococcus aureus [2]) of the same compound?
Its LC50 is 5 µM.

And the Activity (Staphylococcus aureus [3])?
The Activity was “Dose-dependent effect”.

What about the EC50 (Staphylococcus aureus [3]) of the same compound?
The EC50 was 2 µM.

And the LC50 (Escherichia coli [4])?
The LC50 was 20 µM.

What about the EC50 (Escherichia coli [5]) of the same compound?
The EC50 was 20 µM.

What about the MIC (Escherichia coli [8]; K-12 W3110, 20 h) of the same compound?
Its MIC is 4 µg/mL.

And the HC50 [6]?
Its HC50 is 5 µM.

And the MIC (Staphylococcus aureus [7])?
The MIC was 3 µM (≈ 3.42 µg/mL).

Which MIC (Escherichia coli [1]) does the source give for `CC(C)C[C@@H]1NC(=O)[C@H](CCCN)NC(=O)[C@H](C(C)C)NC(=O)[C@@H]2CCCN2C(=O)[C@@H](Cc2ccc(O)cc2)NC(=O)[C@H](CC(C)C)NC(=O)[C@H](CCCN)NC(=O)[C@H](C(C)C)NC(=O)[C@@H]2CCCN2C(=O)[C@@H](Cc2ccc(O)cc2)NC1=O` (cyclo(L[dY]PV[Orn]L[dY]PV[Orn])) here?
The MIC was 26 µM (≈ 30.5 µg/mL).

What about the HC50 [6] of the same compound?
Its HC50 is 10 µM.

And the MIC (Staphylococcus aureus [7])?
The MIC was 3 µM (≈ 3.52 µg/mL).

For `CO[C@@H]1[C@@H](OC(N)=O)[C@@H](O)[C@H](Oc2ccc3c(O)c(NC(=O)c4ccc(O)c(CC=C(C)C)c4)c(=O)oc3c2C)OC1(C)C`, which Activity (Escherichia coli [8]) is on record?
Its Activity is “Active”.

Which results are given for `CC(C)C[C@@H]1NC(=O)[C@H](CCCN)NC(=O)[C@H](C(C)C)NC(=O)[C@@H]2CCCN2C(=O)/C(=C/c2ccccc2)NC(=O)[C@H](CC(C)C)NC(=O)[C@H](CCCN)NC(=O)[C@H](C(C)C)NC(=O)[C@@H]2CCCN2C(=O)/C(=C/c2cccnc2)NC1=O` (cyclo(L[X2]PV[Orn]L[X1]PV[Orn]))?
MIC (Escherichia coli [1]): 26 µM (≈ 29.6 µg/mL); LC50 (Staphylococcus aureus [2]): 10 µM; EC50 (Staphylococcus aureus [3]): 5 µM; LC50 (Escherichia coli [4]): 50 µM; EC50 (Escherichia coli [5]): 50 µM; HC50 [6]: 20 µM; MIC (Staphylococcus aureus [7]): 3 µM (≈ 3.42 µg/mL)

Which MIC (Escherichia coli [1]) does the source give for `CC(C)C[C@@H]1NC(=O)[C@H](CCCN)NC(=O)[C@H](C(C)C)NC(=O)[C@@H]2CCCN2C(=O)/C(=C/c2ccccc2)NC(=O)[C@H](CC(C)C)NC(=O)[C@H](CCCN)NC(=O)[C@H](C(C)C)NC(=O)[C@@H]2CCCN2C(=O)/C(=C/c2ccccc2)NC1=O` (cyclo(L[X2]PV[Orn]L[X2]PV[Orn])) here?
The MIC was 26 µM (≈ 29.6 µg/mL).

And the LC50 (Staphylococcus aureus [2])?
Its LC50 is 5 µM.

What about the EC50 (Staphylococcus aureus [3]) of the same compound?
The EC50 was 5 µM.

And the LC50 (Escherichia coli [4])?
The LC50 was 20 µM.

And the EC50 (Escherichia coli [5])?
The EC50 was 20 µM.

And the HC50 [6]?
Its HC50 is 5 µM.

And the MIC (Staphylococcus aureus [7])?
The MIC was 3 µM (≈ 3.41 µg/mL).
